The values below come from US12240855B2, “Pyrrolopyrazole derivative” (DAIICHI SANKYO COMPANY, LIMITED, priority 2019, dated 2025).

In general, GI50 refers to the concentration at which growth is held to half of that of the control.

In the assay the test system is HCT116 cells. Briefly: cells. The note with it: Homo sapiens, HCT-116, 72 h, read-out: Test Example 3 HCT116 GI50.

Method: McCoy's 5A medium containing 10% bovine serum was used as the culture medium for each cell. […] They were added to each well of 384-well plates at 40 nL/well using an Echo555 (Labcyte Inc.). […] On the day of compound addition (day 0) and 3 days after compound addition (day 3), 10 μL/well of CellTiter-Glo® 2.0 Assay (Promega, #G9242), which is a reagent for ATP measurement, was added to each well, and the amount of luminescence in each well was measured with EnVision. From the amount of luminescence on the day of compound addition (C0) and the amount of luminescence of the compound non-addition group (C3) and compound addition group (T3) after 3 days of culture, cell viability was calculated based on the following formula. Cell viability (%)=[(T3−C0)/(C3−C0)]×100

With `O=C1c2[nH]nc(-c3cccc4[nH]c(=O)oc34)c2C(c2ccc(Oc3ccc(Cl)cc3)cc2)N1CC1CC1` (single isomer, unassigned) [Example 2, 7-{4-[4-(4-Chlorophenoxy)phenyl]-5-(cyclopropylmethyl)-6-oxo-1,4,5,6-tetrahydropyrrolo[3,4-c]pyrazol-3-yl}-1,3-benzoxazol-2(3H)-one (enantiomer)], the GI50 turned out to be 10 µM. Consider `Cc1nc(C2c3c(-c4cccc5[nH]c(=O)oc45)n[nH]c3C(=O)N2CC(C)(F)F)ccc1F` (single isomer, unassigned) [Example 23, 7-[5-(2,2-Difluoropropyl)-4-(5-fluoro-6-methylpyridin-2-yl)-6-oxo-1,4,5,6-tetrahydropyrrolo[3,4-c]pyrazol-3-yl]-1,3-benzoxazol-2(3H)-one (enantiomer)], for which the GI50 was over 25 µM.

As to `CC(F)(F)CN1C(=O)c2[nH]nc(-c3cccc4[nH]c(=O)oc34)c2C1c1cnc(C(F)(F)F)s1` (single isomer, unassigned) [Example 24, 7-{5-(2,2-Difluoropropyl)-6-oxo-4-[2-(trifluoromethyl)-1,3-thiazol-5-yl]-1,4,5,6-tetrahydropyrrolo[3,4-c]pyrazol-3-yl}-1,3-benzoxazol-2(3H)-one (enantiomer)], the GI50 is over 25 µM.

For the compound `CC(F)(F)CN1C(=O)c2[nH]nc(-c3cccc4[nH]c(=O)oc34)c2C1c1ccc(Oc2cc(C(F)(F)F)cc(C(F)(F)F)c2)cc1F` (single isomer, unassigned) [Example 66, 7-[4-{4-[3,5-Bis(trifluoromethyl)phenoxy]-2-fluorophenyl}-5-(2,2-difluoropropyl)-6-oxo-1,4,5,6-tetrahydropyrrolo[3,4-c]pyrazol-3-yl]-1,3-benzoxazol-2(3H)-one (enantiomer)], the GI50 is over 25 µM. Then `CC(F)(F)CN1C(=O)c2[nH]nc(-c3cccc4[nH]c(=O)oc34)c2C1c1ccc(CN2CCC(F)(F)CC2)cc1` (single isomer, unassigned) [Example 83, 7-[4-{4-[(4,4-Difluoropiperidin-1-yl)methyl]phenyl}-5-(2,2-difluoropropyl)-6-oxo-1,4,5,6-tetrahydropyrrolo[3,4-c]pyrazol-3-yl]-1,3-benzoxazol-2(3H)-one (enantiomer)], with over 25 µM. With `O=C1c2[nH]nc(-c3cccc4[nH]c(=O)oc34)c2C(c2cccc(Oc3ccc(Cl)cn3)c2)N1CC1CC1` (stereo not drawn) [Example 3] the figure was 13 µM.

With `O=C1c2[nH]nc(-c3cccc4[nH]c(=O)oc34)c2C(c2cccc(OC3CCC(F)(F)CC3)c2)N1CC1CC1` (stereo not drawn) [Example 7, 7-[5-(Cyclopropylmethyl)-4-{3-[(4,4-difluorocyclohexyl)oxy]phenyl}-6-oxo-1,4,5,6-tetrahydropyrrolo[3,4-c]pyrazol-3-yl]-1,3-benzoxazol-2(3H)-one], the GI50 worked out at 15 µM. As to `CCC(F)(F)CN1C(=O)c2[nH]nc(-c3cccc4[nH]c(=O)oc34)c2C1c1ccc(F)cc1` (stereo not drawn) [Example 11, 7-[5-(2,2-Difluorobutyl)-4-(4-fluorophenyl)-6-oxo-1,4,5,6-tetrahydropyrrolo[3,4-c]pyrazol-3-yl]-1,3-benzoxazol-2(3H)-one], the GI50 is over 25 µM. For `O=C1c2[nH]nc(-c3cccc4[nH]c(=O)oc34)c2C(c2cccc(Oc3ccccc3)c2)N1Cc1ncco1` (stereo not drawn) [Example 12, 7-{5-[(1,3-Oxazol-2-yl)methyl]-6-oxo-4-(3-phenoxyphenyl)-1,4,5,6-tetrahydropyrrolo[3,4-c]pyrazol-3-yl}-1,3-benzoxazol-2(3H)-one], the GI50 was over 25 µM.

Consider `O=C1c2[nH]nc(-c3cc(Oc4ccccc4)cc4[nH]c(=O)oc34)c2C(c2ccc(F)cc2)N1CC(F)(F)F` (stereo not drawn) [Example 15, 7-[4-(4-Fluorophenyl)-6-oxo-5-(2,2,2-trifluoroethyl)-1,4,5,6-tetrahydropyrrolo[3,4-c]pyrazol-3-yl]-5-phenoxy-1,3-benzoxazol-2(3H)-one], for which the GI50 was over 25 µM.

For the compound `O=C1c2[nH]nc(-c3ccc(F)c4[nH]c(=O)oc34)c2C(c2cc(Oc3ccccc3)ccc2F)N1CC(F)(F)F` (stereo not drawn) [Example 16, 4-Fluoro-7-[4-(2-fluoro-5-phenoxy]phenyl)-6-oxo-5-(2,2,2-trifluoroethyl)-1,4,5,6-tetrahydropyrrolo[3,4-c]pyrazol-3-yl-1,3-benzoxazol-2(3H)-one], the GI50 was over 25 µM.

Consider `CC(F)(F)CN1C(=O)c2[nH]nc(-c3cccc4[nH]c(=O)oc34)c2C1c1ccnc(Oc2ccccc2)c1` (stereo not drawn) [Example 72, 7-[5-(2,2-Difluoropropyl)-6-oxo-4-(2-phenoxypyridin-4-yl)-1,4,5,6-tetrahydropyrrolo[3,4-c]pyrazol-3-yl]-1,3-benzoxazol-2(3H)-one], for which the GI50 was over 25 µM.

Take `CC(F)(F)CN1C(=O)c2[nH]nc(-c3cccc4[nH]c(=O)oc34)c2C1c1ccc(Oc2ccc(Cl)cc2)cn1` (stereo not drawn) [Example 77, 7-{4-[5-(4-Chlorophenoxy)pyridin-2-yl]-5-(2,2-difluoropropyl)-6-oxo-1,4,5,6-tetrahydropyrrolo[3,4-c]pyrazol-3-yl]-1,3-benzoxazol-2(3H)-one]: the GI50 is over 25 µM.

With `CC(F)(F)CN1C(=O)c2[nH]nc(-c3cccc4[nH]c(=O)oc34)c2C1c1cc(Oc2ccc(F)cc2)ccn1` (stereo not drawn) [Example 78, 7-{5-(2,2-Difluoropropyl)-4-[4-(4-fluorophenoxy)pyridin-2-yl]-6-oxo-1,4,5,6-tetrahydropyrrolo[3,4-c]pyrazol-3-yl}-1,3-benzoxazol-2(3H)-one], the GI50 was over 25 µM.

As to `CC(F)(F)CN1C(=O)c2[nH]nc(-c3cccc4[nH]c(=O)oc34)c2C1c1ccc2c(cnn2-c2ccccc2)c1` (stereo not drawn) [Example 88, 7-[5-(2,2-Difluoropropyl)-6-oxo-4-(1-phenyl-1H-indazol-5-yl)-1,4,5,6-tetrahydropyrrolo[3,4-c]pyrazol-3-yl]-1,3-benzoxazol-2(3H)-one], the GI50 turned out to be 7.9 µM. With `CC(F)(F)CN1C(=O)c2[nH]nc(-c3cccc4[nH]c(=O)oc34)c2C1c1ccc(C(F)(F)c2ccccc2)cc1` (stereo not drawn) [Example 91, 7-[4-{4-[Difluoro(phenyl)methyl]phenyl}-5-(2,2-difluoropropyl)-6-oxo-1,4,5,6-tetra hydropyrrolo[3,4-c]pyrazol-3-yl]-1,3-benzoxazol-2(3H)-one] the figure was 15 µM; with `CC(F)(F)CN1C(=O)c2[nH]nc(-c3cccc(NC=O)c3)c2C1c1ccc(Cl)cc1` (stereo not drawn) [Example 92, N-{3-[4-(4-Chlorophenyl)-5-(2,2-difluoropropyl)-6-oxo-1,4,5,6-tetrahydropyrrolo[3,4-c]pyrazol-3-yl]phenyl}formamide], 11 µM. Then `CC(F)(F)CN1C(=O)c2[nH]nc(-c3cccc(NC(N)=O)c3)c2C1c1ccc(Cl)cc1` (stereo not drawn) [Example 93, N-{3-[4-(4-Chlorophenyl)-5-(2,2-difluoropropyl)-6-oxo-1,4,5,6-tetrahydropyrrolo[3,4-c]pyrazol-3-yl]phenyl}urea], with over 25 µM.
